Measurements from patent publication EP4595966A1, “USE OF NPY/Y5R INHIBITOR IN TREATING LIVER METASTASIS” (Friedrich-Alexander-Universität Erlangen-Nürnberg, priority 2024, dated 2025).

Experiments:
[1] = tested on: human melanoma cells (SkMel28); test: Clonogenicity assays (two- and three-dimensional colony formation), human melanoma cells; format: cell-based; settings: human (metastatic) melanoma cells
Description: (§1) • Figure 1 A-B. Boyden chamber analysis and representative images (10-fold original magnification) of chemotaxis of human melanoma cells (SkMel28) towards recombinant NPY (lower chamber) with or without application of Y5R specific inhibitor CGP71683 (Y5Ri) (upper chamber) compared to migration towards serum free medium (n = 9). Arrowheads indicate migrated cells. • Figure 2. Representative images of colony number and colony size of human melanoma cells (SkMel28) in clonogenicity assays with application of increasing concentrations of Y5R inhibitor (Y5Ri) (n = 3). • Figure 3. Schematic illustration of the experimental procedure: splenic injection of murine melanoma cells (B16) in C57BL/6 mice on day 0; intraperitoneal injection of Y5R inhibitor CGP71683 (Y5Ri) (15 mg/kg body weight per injection) or solvent only (DMSO) as control on indicated days; end of experiment eight days after cell implantation. • Figure 4. Explanted metastases bearing spleens and livers of DMSO (control) and Y5Ri treated mice after splenic injection of B16 melanoma cells. • Figure 5. Macroscopic classification of livers from DMSO (n = 11) and Y5Ri treated mice (n = 9) into very low / low versus moderate / high liver metastasis. • Figure 6. A. CHK2 level in NPY^-/- mice compared to control WT mice measured by IHC analysis. B. CHK2 level in Y5Ri-treated mice compared to control DMSO-treated mice measured by IHC analysis. • Figure 7. […] A. Quantification of NPY mRNA expression levels in liver tissues from mice treated with control LNPs ("Control", LNPs bearing control siRNA pool, n = 11) and from mice treated with LNPs bearing siRNA pool targeting murine NPY ("LNP-siNPY", n = 11). B. Quantification of NPY protein levels in liver tissues from mice treated with control LNPs (n = 11) and LNP-siNPY treated mice (n = 11). • Figure 9 A-B. ELISA based protein expression analysis of absolute NPY levels in liver tissues and serum samples from LNP-siNPY treated mice (n = 10) compared to mice treated with control LNPs (LNPs bearing control siRNA pool, n = 11) after splenic melanoma cell injection. • Figure 10. […] A. Quantification of number of metastases in liver tissues from LNP-siNPY treated mice (n = 10) compared to mice treated with control LNPs (LNPs bearing control siRNA pool, n = 11). B. Quantification of metastases size in liver tissues from LNP-siNPY treated mice (n = 10) compared to mice treated with control LNPs (LNPs bearing control siRNA pool, n = 11). • Figure 13. […] A. Quantification of pERK protein expression in metastatic liver tissue samples of LNP-siNPY treated mice (n = 6) compared to mice treated with control LNPs (LNPs bearing control siRNA pool, n = 6). […]

[2] = tested on: CRC, PC and BC cell lines; test: Clonogenicity assays, CRC, PC and BC cell lines; format: cell-based
Description: (§2) Normal human epidermal melanocytes (NHEM), the human primary melanoma cell lines Mel Juso, Mel Ei, Mel Wei and metastatic human melanoma cell lines SkMel28 (ATCC CRL-1469™), Mel Im, Mel Ju, SkMel3 (ATCC HTB-69™) were described previously (Jacob et al., 1998; Heimerl et al., 2007). Primary human hepatocytes (PHH) were isolated and cultured as described elsewhere (Dietrich et al., 2017; Lee et al., 2013). In addition, the human breast cancer cell line MCF-7 (ATCC HTB-22™), the human pancreatic cancer cell line Panc-1 (ATCC CRL-1469™) and the human colon cancer cell lines HT29 (ATCC HTB-38™), Caco-2 (ATCC HTB-37™) and LoVo (ATCC CCL-229™) were used. The murine melanoma cell line B16 (ATCC CRL-6475™) was used for in vitro and in vivo studies. Furthermore, the murine pancreatic cancer cell line KPC and the murine colon cancer cell lines MC38 and CT26 (ATCC CRL-2638™) were used. Table 4. Summary and additional information of human and murine cell lines. BC: Breast cancer. CRC: Colorectal cancer. Hetero: Heterozygous genotype. Homo: Homozygous genotype. MET: Metastatic melanoma cell line. MM: Malignant melanoma. Nd: not determined / missing. PC: Pancreatic cancer. PT: Primary tumor melanoma cell line. Peri-tumor: Tumor-surrounding liver tissue. IR: immunoreactivity (score).
As described previously (Dietrich et al., 2017), clonogenic assays were performed to analyze stem cell behavior, attachment dependent colony formation and growth of cancer cells.
Anchorage independent colony formation and growth of cancer cells were analyzed using soft agar colony formation assays as described previously (Borowicz et al., 2014). Treatment with specific agonists and antagonists started 24 h after tumor cell seeding. Treatment was repeated after five and nine days. Microscopic analysis of the obtained colonies was conducted 14 days after tumor cell seeding.

[3] = tested on: human melanoma cells (SkMel28); test: Boyden chamber chemotactic migration, human melanoma cells; format: cell-based; settings: for NPY-induced chemotactic migration: melanoma cells, migration towards recombinant NPY, co-treatment with the substance
Description: as §1

[4] = tested on: CRC, PC and BC cell lines; test: Boyden chamber NPY-mediated chemotactic migration, CRC, PC and BC cell lines; format: cell-based
Description: as §2
As described previously (Dietrich et al., 2017), Boyden chamber assays were used in order to analyze cell migration. Boyden chamber filters were additionally coated with Matrigel to analyze cell invasion.

[5] = tested on: B16 melanoma cells (liver metastasis); test: Spleen-liver metastasis model with Y5R inhibitor treatment; format: in vivo, C57BL/6 mice
Description: • Figure 1 A-B. Boyden chamber analysis and representative images (10-fold original magnification) of chemotaxis of human melanoma cells (SkMel28) towards recombinant NPY (lower chamber) with or without application of Y5R specific inhibitor CGP71683 (Y5Ri) (upper chamber) compared to migration towards serum free medium (n = 9). Arrowheads indicate migrated cells. • Figure 2. Representative images of colony number and colony size of human melanoma cells (SkMel28) in clonogenicity assays with application of increasing concentrations of Y5R inhibitor (Y5Ri) (n = 3). • Figure 3. Schematic illustration of the experimental procedure: splenic injection of murine melanoma cells (B16) in C57BL/6 mice on day 0; intraperitoneal injection of Y5R inhibitor CGP71683 (Y5Ri) (15 mg/kg body weight per injection) or solvent only (DMSO) as control on indicated days; end of experiment eight days after cell implantation. • Figure 4. Explanted metastases bearing spleens and livers of DMSO (control) and Y5Ri treated mice after splenic injection of B16 melanoma cells. • Figure 5. Macroscopic classification of livers from DMSO (n = 11) and Y5Ri treated mice (n = 9) into very low / low versus moderate / high liver metastasis. • Figure 6. A. CHK2 level in NPY^-/- mice compared to control WT mice measured by IHC analysis. B. CHK2 level in Y5Ri-treated mice compared to control DMSO-treated mice measured by IHC analysis. • Figure 7. Schematic illustration of the experimental procedure: pre-treatment of C57BL/6 mice with lipid nanoparticles (LNP) bearing control siRNA pool or siNPY pool (pool of siRNAs targeting murine NPY) one day before surgery (day -1); splenic injection of murine melanoma cells (B16) on day 0; intraperitoneal injection of LNPs with control siRNA pool or siNPY pool as indicated; end of experiment six days after cell implantation. • Figure 8. A. Quantification of NPY mRNA expression levels in liver tissues from mice treated with control LNPs ("Control", LNPs bearing control siRNA pool, n = 11) and from mice treated with LNPs bearing siRNA pool targeting murine NPY ("LNP-siNPY", n = 11). B. Quantification of NPY protein levels in liver tissues from mice treated with control LNPs (n = 11) and LNP-siNPY treated mice (n = 11). • Figure 9 A-B. ELISA based protein expression analysis of absolute NPY levels in liver tissues and serum samples from LNP-siNPY treated mice (n = 10) compared to mice treated with control LNPs (LNPs bearing control siRNA pool, n = 11) after splenic melanoma cell injection. • Figure 10. […] A. Quantification of number of metastases in liver tissues from LNP-siNPY treated mice (n = 10) compared to mice treated with control LNPs (LNPs bearing control siRNA pool, n = 11). B. Quantification of metastases size in liver tissues from LNP-siNPY treated mice (n = 10) compared to mice treated with control LNPs (LNPs bearing control siRNA pool, n = 11). • Figure 13. […] A. Quantification of pERK protein expression in metastatic liver tissue samples of LNP-siNPY treated mice (n = 6) compared to mice treated with control LNPs (LNPs bearing control siRNA pool, n = 6). B. Quantification of pCHK2 protein expression in metastatic liver tissue samples of LNP-siNPY treated mice (n = 6) compared to samples from control treatment (control siPool bearing LNPs) (n = 6). • Figure 15. […]

metastatic CRC organoids = test: Ki67 expression in metastatic CRC organoids; format: cell-based, murine; settings: vs controls
Method: Murine APTAK organoids were used for in vitro and in vivo experiments. These APTAK tumor organoids are deficient in Apc, Tp53, Tgfbr2 and express constitutively activated Kras and activated Akt1. Organoids were generated and CRC models were conducted in a similar way as previously described (Heichler et al., 2020). In an orthotopic mouse model for CRC and CRC (liver) metastasis, single cell suspensions from genetically engineered APTAK organoids were injected into the submucosa of wildtype mice.
Immunohistochemistry (IHC) and immunofluorescence analyses were performed using tissue microarrays consisting of human cancer tissue samples and mouse paraffin-embedded tissue sections as described previously (Dietrich et al., 2017; Dietrich et al., 2020). […] For each antibody, immunohistochemistry staining was evaluated semi-quantitatively and scores were calculated as described previously (Dietrich et al., 2017; Dietrich et al., 2020).

pCHK2 = pCHK2 levels in melanoma cells in vitro; format: cell-based; settings: (metastatic) melanoma cells in vitro
Method: As described in detail in previous studies (Dietrich et al., 2017), Western blots and densitometric quantification were performed using the following primary antibodies: anti-β-actin antibody (catalog no. A1978, Sigma-Aldrich; 1 in 5,000 dilution), anti-phospho-ERK antibody (catalog no. #9101, Cell Signaling, Frankfurt am Main, Germany; 1 in 4,000 dilution), anti-ERK antibody (catalog no. #9102, Cell Signaling; 1 in 1,000 dilution), anti-phospho-AKT antibody (catalog no. #9271, Cell Signaling, Frankfurt am Main, Germany; 1 in 2000 dilution), anti-AKT (catalog no. #9272, Cell Signaling, Frankfurt am Main, Germany; 1 in 2000 dilution), anti-Y5R antibody (catalog no. ab133757, Abcam; 1 in 30,000 dilution), anti-phospho-Chk2 antibody (catalog no. #2661, Cell Signaling, Frankfurt am Main, Germany; 1 in 1000 dilution), anti-phospho-p53 antibody (catalog no. #9284, Cell Signaling, Frankfurt am Main, Germany; 1 in 1000 dilution).

liver transaminases ([5]; mice, 15 mg/kg i.p. every 24 h)	chemotactic migration induced by hepatocyte-derived, NPY-containing supernatants or by liver lysates from wildtype mice ([3]; concomitant Y5R-inhibition)	SMILES	clonogenicity [1]	clonogenicity ([2]; CRC cells)	clonogenicity ([2]; PC and BC cell lines)	NPY-induced chemotactic migration [3]	NPY-mediated chemotactic migration ([4]; CRC cells)	NPY-mediated chemotactic migration ([4]; PC and BC cell lines)	clonogenicity ([2]; CRC, PC and BC cell lines)	cleaved caspase 3 expression in liver metastatic cells ([5]; mice, IHC)	liver metastasis ([5]; splenic injection of B16 cells, 15 mg/kg i.p. every 24 h, vs vehicle control)	pCHK2 in liver metastasis ([5]; treated mice vs controls, IHC (Figure 6B))	Ki67 expression in liver metastasis ([5]; treated vs control-treated mice, IHC)	Ki67 expression (metastatic CRC organoids)	pCHK2 levels (pCHK2)
		NC(=O)NCc1ccc(CNC(=O)[C@@H](CCCN=C(N)N)NC(=O)C(c2ccccc2)c2ccccc2)cc1 [Y1Ri]	not affected	did not affect	did not affect clonogenicity	not altered	did not affect	sufficient to reduce NPY-mediated chemotactic migration							
		N=C(N)NCCC[C@H](NC(=O)CC1(CC(=O)N2CCN(C3c4ccccc4NC(=O)c4ccccc43)CC2)CCCC1)C(=O)NCCn1c(=O)n(-c2ccccc2)n(-c2ccccc2)c1=O (stereo partly drawn) [Y2Ri]	not affected	did not affect	did not affect clonogenicity	not altered	did not affect	not affected							
did not affect	significantly reduced	Nc1nc(NC[C@H]2CC[C@H](CNS(=O)(=O)c3cccc4ccccc34)CC2)nc2ccccc12 [Y5Ri, N-[[trans-4-[[(4-amino-2-quinazolinyl)amino]methyl]cyclohexyl]methyl]-1-naphthalenesulfonamide]	strongly reduced clonogenicity			antagonized NPY-induced chemotactic migration			confirmed	only slightly, however not significantly, enhanced	significantly reduced liver metastasis	significant induction	significantly reduced	significantly reduced Ki67 expression	induced pCHK2
		CC(=O)O[C@H]1[C@H]2O[C@]23[C@@H]2CC[C@@H]4C[C@@H](O)CC[C@]4(C)[C@H]2CC[C@]3(C)[C@H]1c1ccc(=O)oc1 [Cinobufagin]	strongly reduced clonogenicity												
